Source: US6555375B1, “Methods for somatic embryo formation and plant regeneration of Beta vulgaris” (priority 2000, dated 2003)

Columns and labels:
Format in all cases: cell-based, Beta vulgaris
[1] = system: embryogenic tissue masses of sugar beet; test: Repetitive embryogenic culture: optimization of proliferation medium; conditions: for Effect of media on repetitive embryogenic culture (description) / white embryos, share of tissues / white embryos or white clumps, share of tissues: pH 5.7
Description: These embedded tissues were manually isolated, separated and transferred into liquid medium (MS medium+BAP 0.2 mg/L). The cultures were maintained at constant agitation (100 rpm) in the dark with biweekly changes of the medium. […] Clumps of white embryogenic tissue masses were divided and transferred to fresh medium for further proliferation. […] Part of these tissues was used for the optimization of culture medium.
The optimization of proliferation medium was conducted through several stages. Each stage lasted for two weeks.

[2] = system: friable callus of sugar beet; test: Somatic embryogenesis from friable callus; conditions: callus of ACH199 on MS+BAP at 1 mg/L
Description: (§1) For regeneration of embryos, friable callus was transferred to callus regeneration medium (MS medium supplemented with either 1 mg/L of BAP or 1 mg/L of TDZ). The cultures were incubated at 25° C. under a photoperiod of 16 hours of light of cool, white light at an intensity of 30 μmol m^−2s^−1 followed by a 8 hours of darkness. Callus began to grow vigorously, and by the end of the second week, it was possible to distinguish several callus types as well as small embryos (FIG. 1C). Since every seedling was treated as a separate line, quantitative analysis can be applied to the results of the experiments.
After having subcultured callus tissues on regeneration medium, friable callus grew quite fast, expanded vigorously and was almost totally necrotic after a month. At this moment a few white embryogenic structures at different stages of development became visible (FIG. 1D); however, only callus of ACH199 growing on MS+BAP at 1 mg/L produced such structures. The frequency of embryogenesis was very low. Seven separate embryos were found in two out of 40 independent callus lines.

[3] = system: sugar beet somatic embryos; test: Germination of primary somatic embryos on MS medium containing cytokinin
Description: The embryos germinated quickly when transferred to fresh medium either supplemented with phytohormones or not. […] These embedded tissues were manually isolated, separated and transferred into liquid medium (MS medium+BAP 0.2 mg/L). The cultures were maintained at constant agitation (100 rpm) in the dark with biweekly changes of the medium. The white embryogenic tissue masses expanded in two weeks and snow-white fresh outgrowths formed on the surface of older tissues (FIG. 2B). Clumps of white embryogenic tissue masses were divided and transferred to fresh medium for further proliferation. A couple of such passages was enough to generate a large number of white clumps. Part of these tissues was used for the optimization of culture medium.

[4] = system: sugar beet seedling tissues (hypocotyls, cotyledons); test: Callus induction from sugar beet seedling explants on MS medium with cytokinin
Description: Seeds from three sugar beet lines ACH199 (triploid), ACH31 (triploid) and ACH203 (diploid) were obtained from Crystal and Maribo Beet Seed, Moorehead, Minn. USA. To remove seed covers, Beta vulgaris seeds were soaked in the tap water overnight and then washed under water flow. Seeds were sterilized by sequential treatment with 70% (v/v) ethanol (1 min.), 0.1% (w/v) mercuric chloride (10 min.) and 10% (v/v) household laundry bleach (20 min.) followed by four washes with sterile distilled water. Seeds were then dried on sterile filter paper. All steps were performed in a laminar flow hood.
A series of media which included additional supplements were used for callus induction, embryo proliferation and shoot formation. Phytohormones (BAP, TDZ, NAA, IAA, 2,4-D) were added to the media before autoclaving (120° C. for 20 min.). The basal medium for callus induction and embryogenesis is MS medium comprising MS basal salts, 3% sucrose, 100 mg/L myo-inositol, 0.5 mg/L nicotinic acid, 0.5 mg/L pyridoxine-HCl, 1 mg/L thiamine-HCl and 0.8% (w/v) Difco agar. The basal medium for proliferation of repetitive embryos is MSE (MS basal salts, 100 mg/L myo-inositol, 0.5 mg/L nicotinic acid, 0.5 mg/L pyridoxine-HCl, 1 mg/L thiamine-HCl).
Petri dishes (100 mm×25 mm) containing 25 mL of medium were used for all experiments. Seeds were placed on MS medium, containing either BAP 2 mg/L or TDZ 1 mg/L; plates were sealed and placed in the dark place at 21° C. Cotyledons and hypocotyls (FIG. 1A) were excised from two-week-old seedlings, cut into several pieces, incised and placed on callus induction medium (MS medium supplemented with either 2 mg/L of BAP or 1 mg/l of TDZ). Plates were incubated in the dark at 21° C. Four weeks later, when explants were necrotic and dark brown, colonies of white friable callus appeared on the explant surface (FIG. 1B). Most of the callus formed on hypocotyls. Only a few colonies were found on cotyledons.

[5] = system: friable callus of sugar beet; test: Shoot/plant regeneration from friable callus
Description: as §1
All explants of one type from the same line (i.e. only hypocotyls) were able to produce callus, if any did. At the same time, there were only a few cases where callus formed from both cotyledons and hypocotyls of the same seedling (twice in ACH31 and four times in ACH203).

[6] = III. MSE, sucrose 6%, BAP 0.1 mg/l, amino acid 2 mg/L
[7] = III. MSE, sucrose 6%, BAP 0.1 mg/l, amino acid 200 mg/L
[8] = II. MSE, sucrose 6%, glutamine 2 mg/L, phytohormone 0.1 mg/L
[9] = IV. MSE, sucrose 6%, glycine 2 mg/L, phytohormone 0.05 mg/L
[10] = IV. MSE, sucrose 6%, glycine 2 mg/L, phytohormone 0.1 mg/L
[11] = IV. MSE, sucrose 6%, glycine 2 mg/L, phytohormone 1 mg/L
[12] = I. MSE, BAP 0.2 mg/L, glutamine 2 mg/L, carbon source 6%

## NC(=O)CC[C@H](N)C(=O)O [Glutamine, glutamine]
[1]
  colour of vitrified tissues: caused bleaching of vitrified tissues
[1]; [6]
  Effect of media on repetitive embryogenic culture (description): Slowly growing, dark yellow tissues
[1]; [7]
  Effect of media on repetitive embryogenic culture (description): Slowly growing, dark yellow tissues

## c1ccc(CNc2ncnc3nc[nH]c23)cc1 [BAP, 6-benzylaminopurine]
[2]
  frequency of embryogenesis: very low
  independent callus lines in which embryos were found: two out of 40
[2]; after a month
  separate embryos found: Seven
[1]; [8]
  Effect of media on repetitive embryogenic culture (description): Most tissues are red or dark yellow
  white embryos, share of tissues: 10%
[1]; IV. MSE, sucrose 6%, glycine 2 mg/L, phytohormone 0.01 mg/L
  Effect of media on repetitive embryogenic culture (description): Necrotic tissue with some white embryos; growth is stunted
[1]; [9]
  Effect of media on repetitive embryogenic culture (description): Light yellow tissues
  white embryos or white clumps, share of tissues: 25%
[1]; [10]
  Effect of media on repetitive embryogenic culture (description): Light yellow tissues
  white embryos or white clumps, share of tissues: 25%
[1]; [11]
  Effect of media on repetitive embryogenic culture (description): Vigorously growing, vitrified tissues
  white embryos, share of tissues: 10%
[3]
  phenotype of embryos transferred to MS medium containing BAP or TDZ: formed multiple shoots but also retained white embryogenic tissues
[4]; Cultivar ACH31, Cotyledons
  %A: number of lines producing callus/total number of lines × 100: 1%
[4]; Cultivar ACH31, Cotyledons, MS + BAP 2 mg/L or TDZ 1 mg/L
  # of lines produced callus: 3
[4]; Cultivar ACH31, Hypocotyls, MS + BAP 2 mg/L or TDZ 1 mg/L
  %A: number of lines producing callus/total number of lines × 100: 20%
[4]; Cultivar ACH31, Hypocotyls, MS + BAP 2 mg/L or TDZ 1 mg/L, dark 21° C.
  # of lines produced callus: 43
[4]; Cultivar ACH199, Cotyledons
  %A: number of lines producing callus/total number of lines × 100: 2%
[4]; Cultivar ACH199, Cotyledons, MS + BAP 2 mg/L
  # of lines produced callus: 4
[4]; Cultivar ACH199, Hypocotyls
  %A: number of lines producing callus/total number of lines × 100: 15%
[4]; Cultivar ACH199, Hypocotyls, MS + BAP 2 mg/L
  # of lines produced callus: 36
[4]; Cultivar ACH203, Cotyledons
  %A: number of lines producing callus/total number of lines × 100: 5%
[4]; Cultivar ACH203, Cotyledons, MS + BAP 2 mg/L or TDZ 1 mg/L
  # of lines produced callus: 11
[4]; Cultivar ACH203, Hypocotyls
  %A: number of lines producing callus/total number of lines × 100: 18%
[4]; Cultivar ACH203, Hypocotyls, MS + BAP 2 mg/L or TDZ 1 mg/L
  # of lines produced callus: 42
[5]; Cultivar ACH31, Cotyledons
  # of lines produced shoots: 0
  %B: number of lines producing callus and regenerating/total number of lines × 100: 0%
[5]; Cultivar ACH31, Hypocotyls
  %B: number of lines producing callus and regenerating/total number of lines × 100: 1%
[5]; Cultivar ACH31, Hypocotyls, regeneration medium MS + 1 mg/L BAP or TDZ
  # of lines produced shoots: 1
[5]; Cultivar ACH199, Cotyledons
  # of lines produced shoots: 1
  %B: number of lines producing callus and regenerating/total number of lines × 100: 0.5%
[5]; Cultivar ACH199, Hypocotyls
  # of lines produced shoots: 1
  %B: number of lines producing callus and regenerating/total number of lines × 100: 0.5%
[5]; Cultivar ACH203, Cotyledons
  # of lines produced shoots: 2
  %B: number of lines producing callus and regenerating/total number of lines × 100: 0.9%
[5]; Cultivar ACH203, Hypocotyls
  # of lines produced shoots: 11
  %B: number of lines producing callus and regenerating/total number of lines × 100: 5%

## OC[C@H]1O[C@@](CO)(O[C@H]2O[C@H](CO)[C@@H](O)[C@H](O)[C@H]2O)[C@@H](O)[C@@H]1O [Sucrose, sucrose]
[1]
  optimization of proliferation medium by modification of sucrose content: did not lead to any further improvement
[1]; [12]
  Effect of media on repetitive embryogenic culture (description): A lot of repetitive white embryos
[1]; V. MSE, BAP 0.1 mg/L, glycine 2 mg/L, sucrose at 3%
  Effect of media on repetitive embryogenic culture (description): Necrosis of all tissues
[1]; V. MSE, BAP 0.1 mg/L, glycine 2 mg/L, sucrose at 6%
  Effect of media on repetitive embryogenic culture (description): A lot of repetitive white embryos
[1]; V. MSE, BAP 0.1 mg/L, glycine 2 mg/L, sucrose at 8%
  Effect of media on repetitive embryogenic culture (description): Growth is inhibited
[1]; V. MSE, BAP 0.1 mg/L, glycine 2 mg/L, sucrose at 10%
  Effect of media on repetitive embryogenic culture (description): Growth is inhibited
[1]; V. MSE, BAP 0.1 mg/L, glycine 2 mg/L, sucrose at 12%
  Effect of media on repetitive embryogenic culture (description): Growth is inhibited

## OC[C@@H](O)[C@@H](O)[C@H](O)[C@@H](O)CO [Sorbitol, sorbitol]
[1]; [12]
  Effect of media on repetitive embryogenic culture (description): No growth, total necrosis

## C/C(=C\CNc1ncnc2[nH]cnc12)CO [Zea, zeatin]
[1]; [8]
  Effect of media on repetitive embryogenic culture (description): Slowly growing, mostly meristematic, vitrified tissues

## OC[C@@H](O)[C@@H](O)[C@H](O)[C@H](O)CO [Mannitol, mannitol]
[1]; [12]
  Effect of media on repetitive embryogenic culture (description): No growth, total necrosis

## O=C(O)COc1ccc(Cl)cc1Cl [2,4D, 2,4-dichlorophenoxyacetic acid]
[1]
  colour of vitrified tissues: caused bleaching of vitrified tissues
[1]; [10]
  Effect of media on repetitive embryogenic culture (description): Pale yellow tissues with white embryos; red pigmentation is repressed
[1]; presence in the medium
  effect on embryo proliferation: negative effect

## c1coc(CNc2ncnc3[nH]cnc23)c1 [Kin, kinetin]
[1]; [8]
  Effect of media on repetitive embryogenic culture (description): Slowly growing, mostly meristematic, vitrified tissues

## NCC(=O)O [Glycine, glycine]
[1]; [6]
  Effect of media on repetitive embryogenic culture (description): Tissues are light yellow
  white embryos, share of tissues: 30%
[1]; [7]
  Effect of media on repetitive embryogenic culture (description): Slowly growing, mostly meristematic, vitrified tissues
